Read-outs that look alike come from different tables or passages of the source.
How the values were obtained:
IFN-γ [1] = experiment: IFN-γ levels in PBMC under Con A stimulation (ELISA); format: cell-based, human; settings: for Percentage IFN-γ levels compared to 100% untreated cells under Con A stimulation: PBMC; for concentration of IFN-γ in Con A stimulated cells: text summary of Table 4, concentration not stated
Experimental: (§1) 1) Isolation, Culture and Treatment of Peripheral Blood Mononuclear Cells (PBMC) Blood was collected in 6 ml vacutainers (green cap). Blood was processed within 2 h of collection. Materials used: Non-coagulated blood; FCS; RPMI-1640 media supplemented with L-Gln and P/S; PBS; sterile tips and pipettes; Sterile 15 ml Falcon; Sterile V-bottom 96-well plates with lids; Neubauer chamber; Trypan Blue solution; 70% IPA solution; Accuspin-Histopaque tubes (Sigma, A7054) Procedure: • 1. Dilute samples 1:1 in sterile PBS; • 2. Add 30 ml of diluted blood into an Accuspin-Histopaque tube (Sigma, A7054); • 3. Centrifuge at 800 rcf 15min at room temperature (RT); • 4. After centrifugation, the red blood cells will remain at the bottom below the frit. The monocytes (PBMC) will be present on a layer above the frit, with the plasma on top; • 5. Collect the PBMC layer with a pipette into a fresh 15 ml Falcon tube and top up to 15 ml of PBS; • 6. Centrifuge at 250 rcf 10 min at RT; • 7. Discard the supernatant, flick the pellet and add another 10 ml of PBS; • 8. Centrifuge at 250 rcf 10 min at RT; • 9. Repeat steps 7 and 8; • 10. […] Count cells and make a 4×10^6 cell/ml suspension in complete medium. Add 100 μl of cell suspension per well in a V-bottom 96-well plate. Then add 50 μl of stimulant or vehicle in complete media, and 50 μl of drug or vehicle in complete media. Incubate the cells for 24 h at 37° C. 5% CO2; • 12. After incubation, take 60 μl of cell supernatant to measure IFNγ and TNFα by ELISA (OptEIA human IFNγ, cat No. 555142 and human TNF, Cat No. 555212) following manufacturer's instructions (BD Biosciences); The two mitogens that the inventors used to stimulate lymphocytes, and therefore assess immune function, were lipopolysaccharide (LPS) and Concanavalin A (Con A). LPS acts on B cells but not T cells, whereas Con A acts on T cells but not B cells. The effects of two embodiments of the compound represented by formula I, i.e. dobutamine (referred to in the tables as BC1021) and ritodrine (BC1023), on the levels of IFN-γ and TNF-α were investigated in LPS and Con A stimulated assays. Peripheral Blood Mononuclear Cells (PMBC) were independently administered with each mitogen, LPS or Con A, and then treated with either dobutamine or ritodrine. Control experiments were conducted in which no LPS or Con A was added, such that any effect on the levels of IFN-γ and TNF-α could be directly attributed to the presence of the test compound, dobutamine or ritodrine.

Con A-stimulated cells = experiment: Cell cytotoxicity compared to digitonin under Con A stimulation
From the text: Digitonin is a glycoside obtained from Digitalis purpurea, which acts as a detergent, and effectively water-solubilizes lipids in the plasma membrane. Therefore, digitonin can be used to permeabilise cell membranes. The inventors therefore investigated digitonin's cell membrane-permeabilising effects on Con A-stimulated cells to determine the cytotoxic effects of ritodrine or dobutamine.

IFN-γ [2] = experiment: IFN-γ levels in PBMC under LPS stimulation (ELISA); format: cell-based, human; settings: for Percentage IFN-γ levels compared to 100% untreated cells under LPS stimulation: PBMC; for concentration of IFN-γ in LPS stimulated cells: text summary of Table 1, concentration not stated
Experimental: 1) Isolation, Culture and Treatment of Peripheral Blood Mononuclear Cells (PBMC) Blood was collected in 6 ml vacutainers (green cap). Blood was processed within 2 h of collection. Materials used: Non-coagulated blood; FCS; RPMI-1640 media supplemented with L-Gln and P/S; PBS; sterile tips and pipettes; Sterile 15 ml Falcon; Sterile V-bottom 96-well plates with lids; Neubauer chamber; Trypan Blue solution; 70% IPA solution; Accuspin-Histopaque tubes (Sigma, A7054) Procedure: • 1. Dilute samples 1:1 in sterile PBS; • 2. Add 30 ml of diluted blood into an Accuspin-Histopaque tube (Sigma, A7054); • 3. Centrifuge at 800 rcf 15min at room temperature (RT); • 4. After centrifugation, the red blood cells will remain at the bottom below the frit. The monocytes (PBMC) will be present on a layer above the frit, with the plasma on top; • 5. Collect the PBMC layer with a pipette into a fresh 15 ml Falcon tube and top up to 15 ml of PBS; • 6. Centrifuge at 250 rcf 10 min at RT; • 7. Discard the supernatant, flick the pellet and add another 10 ml of PBS; • 8. Centrifuge at 250 rcf 10 min at RT; • 9. Repeat steps 7 and 8; • 10. […] Count cells and make a 4×10^6 cell/ml suspension in complete medium. Add 100 μl of cell suspension per well in a V-bottom 96-well plate. Then add 50 μl of stimulant or vehicle in complete media, and 50 μl of drug or vehicle in complete media. Incubate the cells for 24 h at 37° C. 5% CO2; • 12. After incubation, take 60 μl of cell supernatant to measure IFNγ and TNFα by ELISA (OptEIA human IFNγ, cat No. 555142 and human TNF, Cat No. 555212) following manufacturer's instructions (BD Biosciences); The two mitogens that the inventors used to stimulate lymphocytes, and therefore assess immune function, were lipopolysaccharide (LPS) and Concanavalin A (Con A). LPS acts on B cells but not T cells, whereas Con A acts on T cells but not B cells. The effects of two embodiments of the compound represented by formula I, i.e. dobutamine (referred to in the tables as BC1021) and ritodrine (BC1023), on the levels of IFN-γ and TNF-α were investigated in LPS and Con A stimulated assays. Peripheral Blood Mononuclear Cells (PMBC) were independently administered with each mitogen, LPS or Con A, and then treated with either dobutamine or ritodrine. Control experiments were conducted in which no LPS or Con A was added, such that any effect on the levels of IFN-γ and TNF-α could be directly attributed to the presence of the test compound, dobutamine or ritodrine. The values in the Tables are expressed as the percentage value of the LPS only control. […] Standard deviation values (s.d.) are given underneath each value of expressed IFN-γ levels.

TNF-α = TNF-α levels in PBMC under Con A stimulation (ELISA); format: cell-based, human; settings: for Percentage TNF-α levels compared to 100% untreated cells under Con A stimulation: PBMC; for concentration of TNF-α in Con A stimulated cells: text summary of Table 3, concentration not stated
Experimental: as §1

[3] = compound only (no Con A), 10 μM
[4] = compound only (no Con A), 100 μM

Compound	Percentage IFN-γ levels compared to 100% untreated cells under Con A stimulation (IFN-γ [1]; + Con A, compound 1 μM, 24 h) [%]	Percentage IFN-γ levels compared to 100% untreated cells under Con A stimulation (IFN-γ [1]; + Con A, compound 10 μM, 24 h) [%]	Percentage IFN-γ levels compared to 100% untreated cells under Con A stimulation (IFN-γ [1]; + Con A, compound 100 μM, 24 h) [%]	Percentage IFN-γ levels compared to 100% untreated cells under Con A stimulation (IFN-γ [1]; compound only (no Con A), 1 μM) [%]	Percentage IFN-γ levels compared to 100% untreated cells under Con A stimulation (IFN-γ [1]; [3]) [%]	Percentage IFN-γ levels compared to 100% untreated cells under Con A stimulation (IFN-γ [1]; [4]) [%]	concentration of IFN-γ in Con A stimulated cells (IFN-γ [1])	Percentage IFN-γ levels compared to 100% untreated cells under LPS stimulation (IFN-γ [2]; + LPS, compound 1 μM, 24 h) [%]	Percentage IFN-γ levels compared to 100% untreated cells under LPS stimulation (IFN-γ [2]; + LPS, compound 10 μM, 24 h) [%]	Percentage IFN-γ levels compared to 100% untreated cells under LPS stimulation (IFN-γ [2]; + LPS, compound 100 μM, 24 h) [%]	Percentage IFN-γ levels compared to 100% untreated cells under LPS stimulation (IFN-γ [2]; compound only (no LPS), 1 μM) [%]	Percentage IFN-γ levels compared to 100% untreated cells under LPS stimulation (IFN-γ [2]; compound only (no LPS), 10 μM) [%]	Percentage IFN-γ levels compared to 100% untreated cells under LPS stimulation (IFN-γ [2]; compound only (no LPS), 100 μM) [%]	concentration of IFN-γ in LPS stimulated cells (IFN-γ [2])	Percentage TNF-α levels compared to 100% untreated cells under Con A stimulation (TNF-α; + Con A, compound 1 μM, 24 h) [%]	Percentage TNF-α levels compared to 100% untreated cells under Con A stimulation (TNF-α; + Con A, compound 10 μM, 24 h) [%]	Percentage TNF-α levels compared to 100% untreated cells under Con A stimulation (TNF-α; + Con A, compound 100 μM, 24 h) [%]	Percentage TNF-α levels compared to 100% untreated cells under Con A stimulation (TNF-α; compound only (no Con A), 1 μM) [%]	Percentage TNF-α levels compared to 100% untreated cells under Con A stimulation (TNF-α; [3]) [%]	Percentage TNF-α levels compared to 100% untreated cells under Con A stimulation (TNF-α; [4]) [%]	also measured
CC(NCCc1ccc(O)cc1)C(O)c1ccc(O)cc1 (stereo not drawn) [BC1023, ritodrine]	39.93	34.25	41.69	−0.86	−1.52	−1.87	decreased	44.79	51.41	38.74	1.04	2.73	5.46	decreased	103.92	106.20	104.93	−5.94	−24.69	−14.80	cytotoxicity rates in treated samples (Con A-stimulated cells): lower; Percentage cytotoxicity compared to 100% for digitonin under Con A stimulation (Con A-stimulated cells; human, 1 μM): 44.54%; Percentage cytotoxicity compared to 100% for digitonin under Con A stimulation (Con A-stimulated cells; human, 10 μM): 43.63%; Percentage cytotoxicity compared to 100% for digitonin under Con A stimulation (Con A-stimulated cells; human, 100 μM): 43.81%; concentration of TNF-α in Con A stimulated cells (TNF-α): decreased
CC(CCc1ccc(O)cc1)NCCc1ccc(O)c(O)c1 (stereo not drawn) [BC1021, dobutamine]	63.40	32.77	−1.80	−2.61	−2.51	−3.26	decreased	82.88	29.84	37.22	1.21	−0.33	−0.99	decreased	103.05	102.36	−33.95	−35.44	−33.21	−42.84	Percentage IFN-γ levels compared to 100% untreated cells under Con A stimulation (IFN-γ [1]; + Con A, compound 100 μM, 24 h, listed as dobutamine): significant effect in decreasing; Percentage cytotoxicity compared to 100% for digitonin under Con A stimulation (Con A-stimulated cells; compound only (no Con A), 1 μM): 47.71%; Percentage cytotoxicity compared to 100% for digitonin under Con A stimulation (Con A-stimulated cells; [3]): 42.94%; Percentage cytotoxicity compared to 100% for digitonin under Con A stimulation (Con A-stimulated cells; [4]): 32.33%; cytotoxicity rates in treated samples (Con A-stimulated cells; text summary of Table 6, vast majority of cases): lower; concentration of TNF-α in Con A stimulated cells (TNF-α): decreased
